The values that follow come from ChEMBL document CHEMBL2413061, “Synthesis and cytotoxic activity evaluation of 2,3-thiazolidin-4-one derivatives on human breast cancer cell lines” (Bioorg Med Chem Lett, 2013).

One series relates to NIH3T3. Nature of the series: Cytotoxicity against mouse 3T3 cells assessed as cell viability at 0.1 to 10 uM after 72 hrs by MTT assay. The series is classed as cell-based. As to conditions: nih3t3, 72 h.
In series [1] the test system is SK-BR-3. Nature of the series: Cytotoxicity against human estrogen receptor negative SKBR3 cells at 0.1 to 50 uM after 72 hrs by MTT assay. The series is classed as functional, cell-based. In general terms: Formazan colour is commonly taken as a measure of viable cells.
Series [2] deals with SK-BR-3. As to the kind of experiment: Cytotoxicity against human estrogen receptor negative SKBR3 cells at 10 uM after 72 hrs by MTT assay. The series is classed as functional, cell-based.
Series [3] relates to MCF7. Nature of the series: Cytotoxicity against human estrogen receptor positive MCF7 cells after 72 hrs by MTT assay. Particulars: for IC50: MCF7, 72 h. The series is classed as functional, cell-based.
Series [4] relates to MCF7. As to the kind of experiment: Cytotoxicity against human estrogen receptor positive MCF7 cells at 1 to 10 uM after 72 hrs by MTT assay. The series is classed as functional, cell-based.
For series [5], the system named is MCF7. Nature of the series: Cytotoxicity against human estrogen receptor positive MCF7 cells at 50 uM after 72 hrs by MTT assay. The series is classed as functional, cell-based.
Series [6] deals with MCF7. Nature of the series: Cytotoxicity against human estrogen receptor positive MCF7 cells at 0.1 uM after 72 hrs by MTT assay. The series is classed as functional, cell-based.
Series [7] deals with SK-BR-3. Nature of the series: Cytotoxicity against human estrogen receptor negative SKBR3 cells after 72 hrs by MTT assay. Particulars: SK-BR-3, 72 h. The series is classed as functional, cell-based.
Series [8] deals with MCF7. Nature of the series: Cytotoxicity against human estrogen receptor positive MCF7 cells at 1 uM after 72 hrs by MTT assay. The series is classed as functional, cell-based.

Structures are written as SMILES. Activity calls are given as the source filed them. The calls are words filed in the database; no cut-off is given here.

Consider `Cc1ccc(N2C(=O)CSC2c2ccc(Cl)cc2)cc1` (stereo unspecified), for which the Activity entry with NIH3T3 is “Non-toxic”; with MCF7 [3], “Dose-dependent effect”. Further, the inhibition entry in the series on SK-BR-3 [1] is “inactive”. The inhibition result with SK-BR-3 [2] is “Active”.
With `COc1ccc(C2SCC(=O)N2c2ccc(O)cc2)cc1OC` (stereo unspecified), in the series on NIH3T3, the Activity result is listed as “Non-toxic”. Further, the inhibition result with SK-BR-3 [1] was “inactive”. Further, the inhibition result in the series on SK-BR-3 [2] was “Active”. For the same molecule, the outcome in the series on MCF7 [4] was Active. In the series with MCF7 [3], the Activity result is “Dose-dependent effect” and the IC50 was 2580 nM.
`COc1ccc(C2SCC(=O)N2c2ccc(O)cc2)c(OC)c1` (stereo unspecified): the results for the Activity entry in the series on NIH3T3 and in the series with MCF7 [3] were “Non-toxic” and “Dose-dependent effect”, respectively. For the same molecule, the inhibition result in the series on SK-BR-3 [1] is “inactive”.
For `Cc1ccc(N2C(=O)CSC2c2cccc3ccccc23)cc1` (stereo unspecified), the inhibition result with MCF7 [5] is “inactive”. The inhibition entry in the series on MCF7 [6] was “Active”. Besides, the Activity result in the series with NIH3T3 was “Non-toxic”. Besides, 250 nM corresponded to half-maximal inhibition in the series with SK-BR-3 [7] (IC50).
For the molecule `Oc1ccc(/C=C/c2cc(O)cc(O)c2)cc1` [RESVERATROL], the IC50 with SK-BR-3 [7] was determined as 41400 nM; with MCF7 [3], 28100 nM.
Turning to `O=C1CSC(c2ccc(O)cc2)N1c1ccc(O)cc1` (stereo unspecified), the Activity entry in the series with NIH3T3 is “Non-toxic”. The inhibition result in the series with SK-BR-3 [1] was “inactive”.
For `COc1cc(C2SCC(=O)N2c2ccc(O)cc2)cc(OC)c1OC` (stereo unspecified), the Activity result in the series on NIH3T3 is “Non-toxic”; in the series with MCF7 [3] it was “Dose-dependent effect”. Also, the inhibition entry with SK-BR-3 [1] was “inactive”. Moreover, the inhibition result with SK-BR-3 [2] was “Active”.
In the case of `O=C1CSC(c2ccc(O)cc2O)N1c1ccc(O)cc1` (stereo unspecified), the Activity result with NIH3T3 is recorded as “Non-toxic”. Besides, the inhibition result in the series on SK-BR-3 [1] was “inactive”.
In the case of `O=C1CSC(c2ccc(O)c(O)c2)N1c1ccc(O)cc1` (stereo unspecified), the inhibition result in the series on MCF7 [5] and in the series on SK-BR-3 [1] was “inactive” each time. Besides, in the series on MCF7 [8], the inhibition result was “Active”. Also, the Activity entry with NIH3T3 is listed as “Non-toxic”.
For `COc1cc(C2SCC(=O)N2c2ccc(C)cc2)cc(OC)c1OC` (stereo unspecified), in the series with NIH3T3, the Activity entry is given as “Non-toxic”. In addition, the half-inhibitory concentration (IC50) with SK-BR-3 [7] stood at 230 nM.
For the molecule `O=C1CSC(c2cc(O)cc(O)c2)N1c1ccc(O)cc1` (stereo unspecified), the figures for the Activity entry in the series with NIH3T3 and with MCF7 [3] were “Non-toxic” and “Dose-dependent effect”, respectively. Besides, the inhibition entry in the series with SK-BR-3 [1] was “inactive”. Moreover, the inhibition result in the series on SK-BR-3 [2] was “Active”.
Take `O=C1CSC(c2ccc(Cl)cc2)N1c1ccc(O)cc1` (stereo unspecified): the Activity entry with NIH3T3 is recorded as “Non-toxic”. For the same molecule, in the series with SK-BR-3 [1], the inhibition entry is “inactive”. For the same molecule, the inhibition entry with SK-BR-3 [2] is “Active”. The outcome in the series on MCF7 [4] was Active. In the series on MCF7 [3], the Activity entry is “Dose-dependent effect” and inhibition was half-maximal at 5000 nM (IC50).
Take `O=C1CSC(c2ccccc2)N1c1ccccc1` (stereo unspecified): the values for the Activity entry in the series on NIH3T3 and in the series on MCF7 [3] were “Non-toxic” and “Dose-dependent effect”, respectively. Further, in the series with SK-BR-3 [7], the IC50 came out at 810 nM.

As usually defined, the IC50 is the concentration at which inhibition is half-maximal. Lower therefore signals greater potency in that assay.
